Data on seven compounds can be found in ChEMBL document CHEMBL1201862, “PubChem BioAssay data set” (2004).

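Five compound concentrations were applied to cells in 96-well plates for 48 hours; endpoints were derived by simple linear interpolation of the resulting dose-response curve. GI50 is the concentration that inhibits growth by half.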 Calls of active or inactive are those of the source. No stated cut-off is given here; in the data, active = GI50 up to about 1.1 µM and inactive = higher.

Test systems include CCRF-CEM; SW-620; MDA-N; MOLT-4; RPMI-8226; SR; OVCAR-8; OVCAR-3; SN12C; UACC-257; HT-29; MCF7; HOP-92; HCT-15; SK-MEL-28; HOP-62; HL-60; SF-295; NCI-H522; EKVX.
Holding throughout (assay): growth of human tumour cells (NCI), 48 h

Consider `O=C1Nc2ccccc2S/C1=C\c1ccccc1C(F)(F)F`, for which the GI50 in the assay with CCRF-CEM is 2.24 µM (inactive); with SW-620 it was > 100 µM (inactive); in the assay on MDA-N, > 100 µM (inactive); in the assay with MOLT-4 it was > 100 µM (inactive); in the assay on RPMI-8226, 64.1 µM (inactive); in the assay on SR it was > 100 µM (inactive). In addition, the GI50 is 72.6 µM (inactive) in the assay with OVCAR-8; > 100 µM (inactive) with OVCAR-3; > 100 µM (inactive) with SN12C; > 100 µM (inactive) in the assay with UACC-257; > 100 µM (inactive) in the assay with HT-29; 98.6 µM (inactive) with MCF7. For the same compound, the GI50 with HOP-92 is 5.38 µM (inactive); in the assay with HCT-15, over 100 µM; with SK-MEL-28, > 100 µM (inactive); with HOP-62, > 100 µM (inactive); in the assay with HL-60, 4.2 µM (inactive); in the assay on SF-295, > 100 µM (inactive). Moreover, the GI50 in the assay on NCI-H522 is 30.5 µM (inactive); with EKVX, > 100 µM (inactive).

In the case of `O=P1(c2ccccc2)C(c2ccccc2)=CC=C1c1ccccc1`, the GI50 was 12.3 µM (inactive) in the assay on CCRF-CEM; 26.1 µM (inactive) with SW-620; 10.8 µM (inactive) in the assay on MDA-N; 6.65 µM (inactive) in the assay on MOLT-4; 3.31 µM (inactive) in the assay with RPMI-8226; 11.9 µM (inactive) in the assay on SR. Moreover, the GI50 with OVCAR-8 is 14.6 µM (inactive); in the assay with OVCAR-3, 12.2 µM (inactive); with SN12C it was 39.2 µM (inactive); in the assay on UACC-257, 22.5 µM (inactive); in the assay on HT-29, 10.3 µM (inactive); with MCF7, 10.4 µM (inactive). Further, the GI50 with HOP-92 was 12.1 µM (inactive); in the assay on HCT-15, 16 µM; in the assay on SK-MEL-28, 58.1 µM (inactive); in the assay on HOP-62, 44.4 µM (inactive); in the assay with HL-60, 2.28 µM (inactive); with SF-295, 28.4 µM (inactive). The GI50 in the assay with NCI-H522 is 20 µM (inactive); in the assay with EKVX, 24.2 µM (inactive).

As for `O=S(=O)(Nc1nc2ccccc2nc1N1CCCCCC1)c1ccccc1`, the GI50 with CCRF-CEM is 34.5 µM (inactive); in the assay with SW-620 it was 22.7 µM (inactive); with MDA-N, > 100 µM (inactive); with MOLT-4, 16.4 µM (inactive); in the assay with RPMI-8226, 48.2 µM (inactive); in the assay on SR, 25.3 µM (inactive). In addition, the GI50 with OVCAR-8 was 29 µM (inactive); in the assay with OVCAR-3 it was 17.1 µM (inactive); in the assay with SN12C it was > 100 µM (inactive); in the assay on UACC-257, 24.5 µM (inactive); with HT-29 it was 27.6 µM (inactive); with MCF7, 28.6 µM (inactive). The GI50 with HOP-92 was 7.8 µM (inactive); in the assay on HCT-15 it was 17.2 µM; in the assay on SK-MEL-28, 28.2 µM (inactive); in the assay with HOP-62 it was 23 µM (inactive); in the assay with HL-60 it was 23.2 µM (inactive); in the assay with SF-295, 24.1 µM (inactive). In addition, the GI50 in the assay with NCI-H522 is 19.1 µM (inactive); in the assay on EKVX, 24.5 µM (inactive).

For the compound `CCOC(=O)CC1(Cc2ccc(OCc3ccccc3)cc2)C(=O)OC(c2ccccc2)N1C(=O)c1ccccc1` (stereo not given), the GI50 in the assay on CCRF-CEM, in the assay on SW-620, in the assay with MDA-N, with MOLT-4, in the assay with RPMI-8226 and in the assay on SR was > 100 µM (inactive) each time. For the same compound, the GI50 in the assay on OVCAR-8, with OVCAR-3, in the assay on SN12C, in the assay with UACC-257, with HT-29 and with MCF7 was > 100 µM (inactive) throughout. Besides, the GI50 is > 100 µM (inactive) in the assay on HOP-92; over 100 µM in the assay on HCT-15; > 100 µM (inactive) in the assay with SK-MEL-28; > 100 µM (inactive) in the assay with HOP-62; > 100 µM (inactive) with HL-60; > 100 µM (inactive) in the assay with SF-295. The GI50 in the assay on NCI-H522 and with EKVX was > 100 µM (inactive) throughout.

Turning to `O=S(=O)(O)c1ccc(/N=N/c2ccc(/N=N/c3c(O)ccc4ccccc34)cc2)cc1`, the GI50 in the assay with CCRF-CEM is > 51.3 µM (inactive); with SW-620, > 100 µM (inactive); in the assay on MDA-N it was > 100 µM (inactive); in the assay on MOLT-4, > 100 µM (inactive); with RPMI-8226, > 100 µM (inactive); in the assay with SR, 4.76 µM (inactive). Further, the GI50 in the assay on OVCAR-8, in the assay with OVCAR-3, with SN12C, in the assay on UACC-257, in the assay with HT-29 and in the assay on MCF7 was > 100 µM (inactive) each time. The GI50 is > 100 µM (inactive) in the assay on HOP-92; over 100 µM in the assay with HCT-15; > 100 µM (inactive) with SK-MEL-28; > 100 µM (inactive) in the assay with HOP-62; 0.893 µM (active) in the assay on HL-60; > 100 µM (inactive) in the assay with SF-295. Further, the GI50 with NCI-H522 and with EKVX was > 100 µM (inactive) throughout.

Regarding `O=C1CCc2cc(Br)ccc2O1`, the GI50 is > 100 µM (inactive) with CCRF-CEM; > 100 µM (inactive) with SW-620; > 100 µM (inactive) with MDA-N; > 100 µM (inactive) in the assay on MOLT-4; > 100 µM (inactive) in the assay with RPMI-8226; 83 µM (inactive) with SR. The GI50 in the assay on OVCAR-8 is > 100 µM (inactive); in the assay with OVCAR-3, > 100 µM (inactive); in the assay with SN12C, 92.9 µM (inactive); in the assay on UACC-257, > 100 µM (inactive); with HT-29, > 100 µM (inactive); in the assay with MCF7, 12.6 µM (inactive). Moreover, the GI50 in the assay with HOP-92 is 24.9 µM (inactive); in the assay on HCT-15 it was over 100 µM; in the assay on SK-MEL-28 it was > 100 µM (inactive); in the assay with HOP-62 it was 22.4 µM (inactive); with HL-60 it was > 100 µM (inactive); in the assay with SF-295, 34 µM (inactive). Besides, the GI50 is 32.7 µM (inactive) with NCI-H522 and 3.81 µM (inactive) in the assay on EKVX.

Regarding `NC(=S)NN=Cc1ccccc1OCc1cccc(COc2ccccc2C=NNC(N)=S)n1`, the GI50 with CCRF-CEM was > 100 µM (inactive); in the assay on SW-620, > 96.4 µM (inactive); in the assay with MDA-N, > 100 µM (inactive); with MOLT-4 it was > 100 µM (inactive); in the assay with RPMI-8226, > 100 µM (inactive); in the assay with SR, > 100 µM (inactive). Also, the GI50 with OVCAR-8 is 6.01 µM (inactive); in the assay on OVCAR-3, 42.1 µM (inactive); in the assay with SN12C, > 79.3 µM (inactive); with UACC-257, > 79.8 µM (inactive); with HT-29, > 100 µM (inactive); with MCF7, > 100 µM (inactive). For the same compound, the GI50 in the assay with HOP-92 was 3.72 µM (inactive); with HCT-15 it was over 61.2 µM; in the assay on SK-MEL-28, > 100 µM (inactive); in the assay on HOP-62 it was 6.56 µM (inactive); with HL-60, > 100 µM (inactive); in the assay on SF-295 it was 6.85 µM (inactive). In addition, the values for the GI50 in the assay with NCI-H522 and with EKVX were > 64.9 µM (inactive) and 10 µM (inactive), respectively.
